Results on 26 compounds are retold here after paper PMC7686114 (Bioorganic chemistry, 2020).

Bounds are passed on as bounds.

In the test the target is human recombinant PDE5 (Homo sapiens, UniProt O76074). Put plainly: PDE5 inhibition, IMAP fluorescence polarization assay. The class given is biochemical. The following applies: for inhibition at 50 µM: read-out: PDE5 % inh at 50 (μM); for PDE5 inhibitory activity (in words): SAR statement vs parent compound; for reduction in PDE5 inhibitory activity of pyrazole vs pyrazoline: compounds 34 and 35 compared to compounds 1 and 4. Background: In fluorescence polarisation assays a small probe gives low polarisation when free and higher when bound to something large.

With `CC(C)(C)C1=NN(c2ccc(C(=O)O)cc2)C(c2ccccc2Cl)C1` (centres unmarked) [Compound 5, 4-(3-(tert-Butyl)-5-(2-chlorophenyl)-4,5-dihydro-1H-pyrazol-1-yl)benzoic acid], the inhibition at 50 µM stood at 100%.

As for `Cc1ccc(-c2cc(C(F)(F)F)nn2-c2ccc(S(N)(=O)=O)cc2)cc1` [Celecoxib, celecoxib, reference compound], the inhibition at 50 µM was determined as 66.5%.

Regarding `CC(C)(C)C1=NN(c2ccc(C(=O)O)cc2)C(c2ccc(-c3ccccc3)cc2)C1` (centres unmarked) [Compound 25, 4-(5-([1,1’-Biphenyl]-4-yl)-3-(tert-butyl)-4,5-dihydro-1H-pyrazol-1-yl)benzoic acid], the IC50 came to 35.6 µM and the inhibition at 50 µM came out at 100%.

Consider `CC(C)(C)C1=NN(c2ccc(C(=O)O)cc2)C(c2ccc(Br)cc2)C1` (centres unmarked) [Compound 10, 4-(5-(4-Bromophenyl)-3-tert-butyl-4,5-dihydro-1H-pyrazol-1-yl)benzoic acid], for which the IC50 came to 7.2 µM and the inhibition at 50 µM stood at 88%.

As to `COc1ccc(OC)c(C2CC(C(C)(C)C)=NN2c2ccc(C(=O)O)cc2)c1` (centres unmarked) [Compound 17, 4-(3-tert-Butyl-5-(2,5-dimethoxyphenyl)-4,5-dihydro-1H-pyrazol-1-yl)benzoic acid], the 50% inhibitory concentration (IC50) was > 50 µM and the inhibition at 50 µM is 47%.

As to `COc1ccc(C2CC(C(C)(C)C)=NN2c2ccc(C(=O)O)cc2)cc1` (centres unmarked) [Compound 15, 4-(3-tert-Butyl-5-(4-methoxyphenyl)-4,5-dihydro-1H-pyrazol-1-yl) benzoic acid], the inhibition at 50 µM is 95%. The “fold increase in PDE5 inhibitory potency compared to methyl derivative 22” value (vs compound 22) was found to be 4 fold.

With `CC(C)(C)C1=NN(c2ccc(C(=O)O)cc2)C(c2cccs2)C1` (centres unmarked) [Compound 28, 4-(3-tert-Butyl-5-(thiophen-2-yl)-4,5-dihydro-1H-pyrazol-1-yl)benzoic acid], the “PDE5 inhibitory activity (in words)” value was “detrimental to the activity” and the inhibition at 50 µM was determined as 28.1%.

`CC(C)(C)C1=NN(c2ccc(C(=O)O)cc2)C(c2ccc(Cl)c(Cl)c2)C1` (centres unmarked) [Compound 12, 4-(3-(tert-Butyl)-5-(3,4-dichlorophenyl)-4,5-dihydro-1H-pyrazol-1-yl)benzoic acid]: the inhibition at 50 µM was found to be 100%.

Take `CC(C)(C)C1=NN(c2ccc(C(=O)O)cc2)C(c2ccc(F)cc2)C1` (centres unmarked) [Compound 4, 4-(3-tert-Butyl-5-(4-fluorophenyl)-4,5-dihydro-1H-pyrazol-1-yl)benzoic acid]: the IC50 was 7.7 µM and the inhibition at 50 µM stood at 80%.

Take `CC(C)(C)C1=NN(c2ccc(C(=O)O)cc2)C(c2cccc(Cl)c2)C1` (centres unmarked) [Compound 6, 4-(3-(tert-Butyl)-5-(3-chlorophenyl)-4,5-dihydro-1H-pyrazol-1-yl)benzoic acid]: the inhibition at 50 µM amounted to 95.7%.

On to `CCOc1ccccc1C1CC(C(C)(C)C)=NN1c1ccc(C(=O)O)cc1` (centres unmarked) [Compound 18, 4-(3-(tert-Butyl)-5-(2-ethoxyphenyl)-4,5-dihydro-1H-pyrazol-1-yl)benzoic acid], for which the 50% inhibitory concentration (IC50) is > 50 µM and the inhibition at 50 µM was determined as 42.5%.

As to `COc1ccc(C2CC(C(C)(C)C)=NN2c2ccc(C(=O)O)cc2)c(OC)c1` (centres unmarked) [Compound 16, 4-(3-tert-Butyl-5-(2,4-dimethoxyphenyl)-4,5-dihydro-1H-pyrazol-1-yl)benzoic acid], the inhibition at 50 µM is 85.8%.

`CCOC(=O)c1ccc(N2N=C(C(C)(C)C)CC2c2cccc([N+](=O)[O-])c2)cc1` (centres unmarked) [Compound 37, Ethyl 4-(3-tert-butyl-5-(3-nitrophenyl)-4,5-dihydro-1H-pyrazol-1-yl)benzoate]: the “PDE5 inhibitory activity (in words)” value is given as “diminished the PDE5 inhibitory activity” and the inhibition at 50 µM is 16%.

With `CC(C)(C)C1=NN(c2ccccc2C(=O)O)C(c2ccc(Cl)cc2)C1` (centres unmarked) [Compound 30, 2-(3-tert-Butyl-5-(4-chlorophenyl)-4,5-dihydro-1H-pyrazol-1-yl)benzoic acid], the “PDE5 inhibitory activity (in words)” value is “diminished the activity” and the inhibition at 50 µM was 46%.

Take `CC(C)(C)C1=NN(c2ccc(C(=O)O)cc2)C(c2ccc3ccccc3c2)C1` (centres unmarked) [Compound 26, 4-(3-(tert-Butyl)-5-(naphthalen-2-yl)-4,5-dihydro-1H-pyrazol-1-yl)benzoic acid]: the half-maximal inhibitory concentration (IC50) is 21.8 µM and the inhibition at 50 µM worked out at 80%.

`CC(C)(C)c1cc(-c2ccc(F)cc2)n(-c2ccc(C(=O)O)cc2)n1` [Compound 35, 4-(3-tert-Butyl-5-(4-fluorophenyl)-1H-pyrazol-1-yl) benzoic acid]: the IC50 is 31.3 µM, the “reduction in PDE5 inhibitory activity of pyrazole vs pyrazoline” value is 3–4 times and the inhibition at 50 µM came to 75%.

With `COc1ccccc1C1CC(C(C)(C)C)=NN1c1ccc(C(=O)O)cc1` (centres unmarked) [Compound 14, 4-(3-(tert-Butyl)-5-(2-methoxyphenyl)-4,5-dihydro-1H-pyrazol-1-yl)benzoic acid], the 50% inhibitory concentration (IC50) is > 50 µM and the inhibition at 50 µM was 49.8%.

Take `CC(C)(C)C1=NN(c2ccc(C(=O)O)cc2)C(c2ccccc2Br)C1` (centres unmarked) [Compound 8, 4-(5-(2-Bromophenyl)-3-(tert-butyl)-4,5-dihydro-1H-pyrazol-1-yl)benzoic acid]: the inhibition at 50 µM was 100%.

For the compound `CC(C)(C)C1=NN(c2ccc(C(=O)O)cc2)C(c2cccc(F)c2)C1` (centres unmarked) [Compound 3, 4-(3-(tert-Butyl)-5-(3-fluorophenyl)-4,5-dihydro-1H-pyrazol-1-yl)benzoic acid], the IC50 turned out to be 3.7 µM and the inhibition at 50 µM is 94.4%.

As to `CC(C)(C)C1=NN(c2ccc(C(=O)O)cc2)C(c2cccc(Br)c2)C1` (centres unmarked) [Compound 9, 4-(5-(3-Bromophenyl)-3-(tert-butyl)-4,5-dihydro-1H-pyrazol-1-yl)benzoic acid], the inhibition at 50 µM came out at 91.4%.

In the case of `CCOC(=O)c1ccc(N2N=C(C(C)(C)C)CC2c2ccc(Cl)cc2)cc1` (centres unmarked) [Compound 36, Ethyl 4-(3-tert-butyl-5-(4-chlorophenyl)-4,5-dihydro-1H-pyrazol-1-yl)benzoate], the “PDE5 inhibitory activity (in words)” value is on record as “diminished the PDE5 inhibitory activity” and the inhibition at 50 µM was found to be 10.5%.

For the compound `CC(C)(C)C1=NN(c2ccc(C(=O)O)cc2)C(c2ccccc2F)C1` (centres unmarked) [Compound 2, 4-(3-(tert-Butyl)-5-(2-fluorophenyl)-4,5-dihydro-1H-pyrazol-1-yl)benzoic acid], the inhibition at 50 µM came out at 86.3%.

Regarding `CC(C)(C)C1=NN(c2ccc(C(=O)O)cc2)C(c2ccc(Cl)cc2)C1` (centres unmarked) [Compound 7, 4-(3-tert-Butyl-5-(4-chlorophenyl)-4,5-dihydro-1H-pyrazol-1-yl)benzoic acid], the half-inhibitory concentration (IC50) was 3.3 µM and the inhibition at 50 µM stood at 85%.

As for `CC(C)(C)c1cc(-c2ccccc2)n(-c2ccc(C(=O)O)cc2)n1` [Compound 34, 4-(3-tert-Butyl-5-phenyl-1H-pyrazol-1-yl)benzoic acid], the IC50 amounted to 18.9 µM, the “reduction in PDE5 inhibitory activity of pyrazole vs pyrazoline” value was 3–4 times and the inhibition at 50 µM stood at 72%.

`CC(C)(C)C1=NN(c2ccc(C(=O)O)cc2)C(c2ccccc2)C1` (centres unmarked) [Compound 1, 4-(3-tert-Butyl-5-phenyl-4,5-dihydro-1H-pyrazol-1-yl)benzoic acid]: the inhibition at 50 µM was determined as 88%.

For the compound `CC(C)(C)C1=NN(c2ccc(C(=O)O)cc2)C(c2ccc(O)cc2)C1` (centres unmarked) [Compound 24, 4-(3-tert-Butyl-5-(4-hydroxyphenyl)-4,5-dihydro-1H-pyrazol-1-yl)benzoic acid], the inhibition at 50 µM is 77.1%.

A word on the IC50: it is the concentration needed to halve the response being measured.
